Reference: the supplement of paper PMC4862054

Columns and labels:
CAL-51 [1] = conditions: 72 h
Method: (§1)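 Drug sensitivity and resistance testing (DSRT) of breast cancer cell lines in 384-well plates, 5 concentrations in 10-fold dilutions over a compound-specific 10,000-fold range. After 72 h, cytotoxicity was read by CellTox Green fluorescence and viability by CellTiter-Glo luminescence (multiplexed), normalised to DMSO and benzethonium chloride controls. EC50 is the inflection point of the fitted dose-response curve (bottom asymptote free, so it can be relative for partial curves) and is censored at the highest tested concentration. Rows with DSS 0 (no meaningful response) were excluded.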

MDA-MB-231 [2] = conditions: 72 h
Method: as §1

MDA-MB-453 = conditions: 72 h
Outline: (§2)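 For viability, cells received 2.5 µl CellTiter-Blue for 2 h at 37 °C and fluorescence was read at 560/590 nm. Before this, breast cancer cell lines in 20 µl suspension had been incubated for 72 h on 384-well plates pre-loaded with compound dissolved in 5 µl medium. EC50 was obtained from a percent-inhibition dose-response fit censored at the highest concentration, after normalisation of each plate to vehicle and a positive kill control; rows with a zero drug sensitivity score were discarded.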

DU-4475 = conditions: 72 h
Outline: as §2

CAL-51 [3] = conditions: 72 h; remark: listed apart in the source
Outline: as §2

MDA-MB-436 [4] = conditions: 72 h
Outline: as §2

Hs578T [5] = conditions: 72 h
Outline: as §2

BT-549 = conditions: 72 h
Outline: as §2

SK-BR-3 [6] = assay: drug sensitivity score (DSS), CellTiter-Blue viability (DSS (AUC-based score)); higher = stronger viability inhibition; extreme values may be limits of the assay; conditions: incubation time: 72 h
Outline: (§3)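 Into 384-well plates carrying compound in a 5- or 9-concentration series went 20 µl of breast cancer cell suspension, followed by 72 h of incubation. Adding 2.5 µl CellTiter-Blue per well and incubating 2 h at 37 °C preceded fluorescence measurement at 560/590 nm. After normalisation of each plate to 0.1 % DMSO and a positive kill control, dose-response curves were fitted and the area beneath them taken as the drug sensitivity score.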

HDQ-P1 [7] = assay: as above; conditions: incubation time: 72 h
Outline: as §3

MDA-MB-436 [8] = assay: as above; conditions: incubation time: 72 h
Outline: as §3

Hs578T [9] = assay: as above; conditions: incubation time: 72 h
Outline: as §3

SK-BR-3 [10] = conditions: 72 h
Outline: as §2

MDA-MB-468 = conditions: 72 h
Outline: as §2

HCC1937 = conditions: 72 h
Outline: as §2

MDA-MB-231 [11] = conditions: 72 h; remark: listed apart in the source
Outline: as §2

HDQ-P1 [12] = conditions: 72 h
Outline: as §2

CAL-85-1 = conditions: 72 h
Outline: as §2

BT-474 = conditions: 72 h
Outline: as §2

MFM-223 = conditions: 72 h
Outline: as §2

CAL-120 = conditions: 72 h
Outline: as §2

| SMILES | EC50, CellTiter-Blue viability (MDA-MB-453) | EC50, CellTiter-Blue viability (MDA-MB-436 [4]) | EC50, CellTiter-Blue viability (BT-549) | EC50, CellTiter-Blue viability (SK-BR-3 [10]) | EC50, CellTiter-Blue viability (MDA-MB-468) | EC50, CellTiter-Blue viability (HCC1937) | EC50, CellTiter-Blue viability (MDA-MB-231 [11]) | EC50, CellTiter-Blue viability (BT-474) | EC50, CellTox Green (CAL-51 [1]) | EC50, CellTox Green (MDA-MB-231 [2]) | EC50, CellTiter-Blue viability (DU-4475) | EC50, CellTiter-Blue viability (CAL-51 [3]) | EC50, CellTiter-Blue viability (Hs578T [5]) | drug sensitivity score (SK-BR-3 [6]) | drug sensitivity score (HDQ-P1 [7]) | drug sensitivity score (MDA-MB-436 [8]) | drug sensitivity score (Hs578T [9]) | EC50, CellTiter-Blue viability (HDQ-P1 [12]) | EC50, CellTiter-Blue viability (CAL-85-1) | EC50, CellTiter-Blue viability (MFM-223) | EC50, CellTiter-Blue viability (CAL-120) |
| --- | --- | --- | --- | --- | --- | --- | --- | --- | --- | --- | --- | --- | --- | --- | --- | --- | --- | --- | --- | --- | --- |
| COC(=O)c1ccc2c(c1)NC(=O)/C2=C(\Nc1ccc(N(C)C(=O)CN2CCN(C)CC2)cc1)c1ccccc1 [Nintedanib] | – | – | – | – | – | – | – | – | 2950 nM | 2190 nM | – | – | – | – | – | – | – | – | – | – | – |
| CCOC(=O)CCNc1cc(N2CCc3ccccc3CC2)nc(-c2ccccn2)n1 [GSK-J4] | – | – | – | – | – | – | – | – | 9960 nM | 11300 nM | – | – | – | – | – | – | – | – | – | – | – |
| N#Cc1ccc(COC[C@H]2O[C@@H](n3c(NCc4ccc(Cl)c(Cl)c4)nc4c(N)ncnc43)[C@H](O)[C@@H]2O)cc1 | – | 1390 nM | 5190 nM | 6100 nM | 6910 nM | 619 nM | 2870 nM | – | – | – | 2320 nM | – | – | 1.46 | 0 | 4.85 | 0 | – | – | – | – |
| Nc1cc(C(F)(F)F)c(-c2cc(N3CCOCC3)nc(N3CCOCC3)n2)cn1 [Buparlisib] | – | – | – | – | – | – | – | – | 2900 nM | 3580 nM | – | – | – | – | – | – | – | – | – | – | – |
| O=C(Nc1ccncc1)C(=O)c1cn(Cc2ccc(Cl)cc2)c2ccccc12 [Indibulin] | 36.1 nM | 64.5 nM | 135 nM | 26.1 nM | 61.8 nM | 18.1 nM | 87.2 nM | 31.3 nM | 860 nM | 472 nM | 1530 nM | 631 nM | 938 nM | 25.9 | 12.5 | 8.9 | 11.3 | 72.5 nM | 201 nM | 377 nM | 22.4 nM |
| O=C(/C=C/c1cccc(S(=O)(=O)Nc2ccccc2)c1)NO [Belinostat] | 125 nM | 553 nM | 1890 nM | 200 nM | 1940 nM | 578 nM | 684 nM | 889 nM | 680 nM | 261 nM | 478 nM | 1170 nM | 1890 nM | 19 | 11.8 | 12.2 | 8.1 | 488 nM | 666 nM | 605 nM | 204 nM |

Second part, led by results:

| EC50, CellTiter-Blue viability (MDA-MB-453) | EC50, CellTiter-Blue viability (MDA-MB-436 [4]) | EC50, CellTiter-Blue viability (BT-549) | EC50, CellTiter-Blue viability (SK-BR-3 [10]) | EC50, CellTiter-Blue viability (MDA-MB-468) | EC50, CellTiter-Blue viability (HCC1937) | EC50, CellTiter-Blue viability (MDA-MB-231 [11]) | EC50, CellTiter-Blue viability (BT-474) | SMILES | EC50, CellTox Green (CAL-51 [1]) | EC50, CellTox Green (MDA-MB-231 [2]) | EC50, CellTiter-Blue viability (DU-4475) | EC50, CellTiter-Blue viability (CAL-51 [3]) | EC50, CellTiter-Blue viability (Hs578T [5]) | drug sensitivity score (SK-BR-3 [6]) | drug sensitivity score (HDQ-P1 [7]) | drug sensitivity score (MDA-MB-436 [8]) | drug sensitivity score (Hs578T [9]) | EC50, CellTiter-Blue viability (HDQ-P1 [12]) | EC50, CellTiter-Blue viability (CAL-85-1) | EC50, CellTiter-Blue viability (MFM-223) | EC50, CellTiter-Blue viability (CAL-120) |
| --- | --- | --- | --- | --- | --- | --- | --- | --- | --- | --- | --- | --- | --- | --- | --- | --- | --- | --- | --- | --- | --- |
| 2980 nM | 540 nM | 1560 nM | – | – | – | – | – | c1ccc2c(CCNc3ccc(Nc4ccncc4)cc3)c[nH]c2c1 [Serdemetan] | 285 nM | 8800 nM | 4500 nM | 4940 nM | 1540 nM | 0 | 0 | 8.76 | 2.84 | – | – | – | – |
| 851 nM | 1080 nM | 2370 nM | 3180 nM | 1150 nM | 3820 nM | 1750 nM | 2920 nM | Cc1cc(Nc2cc(CN3CCOCC3)c3nc(C)c(Cc4ccc(Cl)cc4F)n3n2)n[nH]1 | – | – | 2130 nM | 2150 nM | 2080 nM | 6.64 | 11.8 | 7.24 | 7.69 | 930 nM | 2650 nM | 83.5 nM | 877 nM |
| 4580 nM | > 10000 nM | – | 6500 nM | – | – | – | – | Cc1ccc(NC(=O)c2ccc(CN3CCN(C)CC3)cc2)cc1Nc1nc(-c2cccnc2)cs1 [Masitinib] | – | 3220 nM | – | – | – | 2.27 | 0 | 0.552 | 0 | – | – | – | – |
| 6.99 nM | 7.68 nM | 50.8 nM | 8.44 nM | 2.99 nM | 4.46 nM | 2.85 nM | 19.4 nM | COCC[n+]1c2c(n(Cc3cnccn3)c1C)C(=O)c1ccccc1C2=O [YM155] | 30.2 nM | 14.4 nM | 114 nM | 20.2 nM | 102 nM | 37 | 33.6 | 37.9 | 22.6 | 11.4 nM | 6.98 nM | 17.3 nM | 3.68 nM |
| 4.43 nM | 107 nM | 125 nM | 10.2 nM | 88.3 nM | 14.6 nM | 32.6 nM | 28.6 nM | Cc1[nH]c2ccccc2c1CCNCc1ccc(/C=C/C(=O)NO)cc1 [Panobinostat] | 30.8 nM | 21.6 nM | 18.2 nM | 49.7 nM | 26.2 nM | 23 | 14 | 9.42 | 17.6 | 35 nM | 23.8 nM | 39.9 nM | 11.1 nM |
| 3180 nM | 9110 nM | 5430 nM | 7750 nM | 5610 nM | – | 4160 nM | 1850 nM | COC(=O)c1ccc2c(c1)NC(=O)/C2=C(\Nc1ccc(N(C)C(=O)CN2CCN(C)CC2)cc1)c1ccccc1 [BIBF 1120] | – | – | 6940 nM | 1400 nM | 7050 nM | 2.7 | 1.16 | 1.32 | 1.63 | 5930 nM | 6440 nM | 555 nM | 3640 nM |
